According to paper PMC6257627, “Target Validation and Identification of Novel Boronate Inhibitors of the Plasmodium falciparum Proteasome” (Journal of Medicinal Chemistry, 2018):
*: point of attachment. AMC = Cc1cc(=O)oc2cc(N*)ccc12

How the values were obtained:
[1] = test system: Pf20S proteasome; test: Validation of resynthesized Ac-P3-P2-P1-AMC substrates, Pf20S; format: biochemical, P. falciparum; conditions: 10 μM
Description: (§1) AMC (10 μM) was used as the fluorescence standard. Pf20S reaction condition: Pf20S (1 nM), human PA28 αβ (24 nM), in 50 mM Tris, pH 7.5, 5 mM MgCl2, 1 mM DTT, 0.01% BSA. Human 20S reaction condition: 0.25 nM human constitutive proteasome or immunoproteasome (Boston Biochem), PA28 αβ (24 nM) in 20 mM HEPES, pH 7.4, 0.5 mM EDTA, 0.01% BSA. The assays were read in kinetic mode at 37 °C using a BMG PHERAstar plate reader, and the rate data were normalized to activity obtained using the Ac-WLR-AMC substrate (=1000 units). For validation of substrate preferences, relevant Ac-P3-P2-P1-AMC substrates were resynthesized by CPC Scientific, CA, USA, and assayed for activity against human and P. falciparum 20S proteasomes in 96-well plates (80 μL reaction, 10 μM substrate) under the same reaction condition.

[2] = biological target: Plasmodium falciparum 20S proteasome β1 (Plasmodium falciparum, UniProt Q8I0U7+Q8I6T3); format: biochemical
[3] = biological target: Plasmodium falciparum 20S proteasome β2 (Plasmodium falciparum, UniProt Q8I261+Q8I6T3); format: biochemical
[4] = biological target: Plasmodium falciparum 20S proteasome β5 (Plasmodium falciparum, UniProt A0A5K1K7U1+Q8IJT1); test: Pf20S proteasome fluorogenic assay, chymotrypsin-like activity (Ac-WLA-AMC); format: biochemical; conditions: 0.8 μM carfilzomib
[5] = test system: P. falciparum 3D7 parasites; test: Standard 72 h antiplasmodial viability assay, 3D7; format: cell-based, Plasmodium falciparum; conditions: for Pf3D7 LD50 (72 h): sorbitol-treated ring stage, viability in next cycle (~72 h), mean ± SEM, n=3; for Pf3D7 LD50 (72-h): supplement CSV
Description: P. falciparum parasites used in this study were propagated in O+ human erythrocytes (Australian Red Cross Blood Service) in RPMI-1640, supplemented with GlutaMAX, 25 mM HEPES (Thermo Fisher Scientific), 5% (v/v) human serum (Australian Red Cross Blood Service), 0.25% (w/v) AlbuMAX II (Thermo Fisher Scientific), 10 μM D-glucose, 22 μg/mL gentamycin (Sigma-Aldrich), and 0.5 mM hypoxanthine (Sigma-Aldrich) and incubated at 37 °C in an atmosphere of 1% O2, 5% CO2, and 94% N2. Cultures were monitored by Giemsa staining of methanol-fixed blood smears. Culture medium was replaced at least every 48 h, and parasitemia was maintained below 10% to ensure health of cultures. The GFP-DD reporter strain was kindly provided by Dr. Paul Gilson, Dr. Brendan Crabb, and Dr. Mauro F. Azevedo (Burnet Institute).
(§2) For standard assays of antiplasmodial activity, sorbitol-treated ring stage parasites were incubated with the drugs for 72 h and viability was assessed in the second cycle.[12] Drug pulse assays were performed as described previously.[47] For short pulse assays, tightly synchronized early ring stage parasites (1–3 h after invasion) at 0.2% hematocrit and 1–2% parasitemia were subjected to 3 h drug pulse at 37 °C and returned to culture until parasites reached trophozoite stage of the following cycle. Cells were then stained with 2 μM Syto-61 (Thermo Fisher Scientific), and their fluorescence was measured by flow cytometry (FACSCanto II cytometer; Becton Dickinson). Data were gated and analyzed using FCS Express software (version 3) to determine parasitemia of each sample. Viability represents the parasitemia normalized to untreated and “kill treated” controls, where “kill treated” refers to samples treated with 2 μM DHA for 48–72 h. Interactions between DHA and MPI-1 or MPI-4 against the K13 mutant (DHA resistant) Cam3.II P. falciparum strain, exposed to a 3 h pulsed treatment, were determined at 4 h after invasion as described previously.[12]

[6] = test system: human constitutive proteasome and immunoproteasome catalytic subunits; test: BMV037 active site probe competition, purified human 20S proteasomes; format: biochemical; conditions: for subunit specificity by BMV037 probe labeling, human constitutive proteasome and immunoproteasome: compounds 1 h, probe 2 h
[7] = test system: Pf20S proteasome β1, β2, β5 subunits; format: biochemical, P. falciparum; conditions: compounds 1 h, purified Pf20S or infected erythrocytes
[8] = test system: P. falciparum Cam3.II^Rev; test: 3 h pulsed exposure viability assay, K13 wild-type revertant early rings; format: cell-based, Plasmodium falciparum; conditions: for Cam3.II^Rev LD50 (3 h): early ring (1–3 h p.i.), 3 h pulse, viability in next cycle, mean ± SEM, n=3; for Cam3.IIRev LD50 (3-h): supplement CSV
Description: as §2

[9] = test system: HCT116 cells; test: HCT116 cellular toxicity (CellTiter-Glo, 72 h); format: cell-based, human; conditions: for HCT116 LD50 (72 h): 72 h incubation, mean ± SEM or half range, 2–4 experiments; for HCT116 LD50 (72-h): supplement CSV
Description: HCT-116 and HepG2 cells were obtained from the American Type Culture Collection and maintained as recommended by the supplier. Cells were cultured in the ATCC-formulated McCoy’s 5A medium or DMEM (Life Technologies, CA), supplemented with fetal bovine serum to a final concentration of 9–10%, and incubated at 37 °C in an atmosphere of 95% air and 5% CO2. Cellular toxicity assays were performed using Promega’s CellTiter-Glo assay system. Varying concentrations of the test compounds in 5% DMSO/95% PBS were dispensed into a 384-well plate and cells added to each well. The plates were incubated at 37 °C for 72 h, and the CellTiter-Glo assay to assess cell viability was performed as described by the manufacturer (Promega).
For human cell line activity assays, cellular toxicity assays were performed as described previously.[23],[48]

[10] = test system: HepG2 cells; test: HepG2 cellular toxicity (CellTiter-Glo, 72 h); format: cell-based, human; conditions: for HepG2 LD50 (72 h): 72 h incubation, mean ± SEM or half range, 2–4 experiments; for HepG2 LD50( 72-h): supplement CSV
[11] = test system: P. falciparum Cam3.II^R539T; test: 3 h pulsed exposure viability assay, K13 mutant early rings; format: cell-based, Plasmodium falciparum; conditions: for Cam3.II^R539T LD50 (3 h): early ring (1–3 h p.i.), 3 h pulse, viability in next cycle, mean ± SEM, n=3; for Cam3.IIR539T LD50 (3-h): supplement CSV
Description: as §2

[12] = test system: Pf20S proteasome subunits of bortezomib-resistant parasites; test: BMV037 active site probe competition, bortezomib-resistant parasites; format: biochemical, P. falciparum; conditions: compounds 1 h
Description: Figure 3 Active site probe analysis of the proteasome subunit specificity of the selected compounds in 3D7 parent and bortezomib-resistant parasites. Purified Pf20S proteasome from wild-type 3D7 (A) and bortezomib-resistant (C) parasites or wild-type 3D7 (B) and bortezomib-resistant (D) trophozoite-infected erythrocytes were treated with compounds for 1 h, and activity-based probe (BMV037) labeling was performed (postlysis for the trophozoite samples). Fluorescent gel scans reveal subunits that remain active after treatment.
P. falciparum culture, purified Pf20S proteasomes, human constitutive proteasomes, or immunoproteasomes (Boston Biochem) were incubated with test compounds at 37 °C for 1 h. Treated parasite lysates (10 μg), Pf20S proteasomes (80 nM), human constitutive proteasomes (20 nM), or immuno-20S proteasomes (20 nM) were labeled with BMV037 (10 μM) at 37 °C for 2 h. Samples were mixed with SDS loading buffer and heated at 95 °C for 5 min. Samples for P. falciparum and human immuno-20S were run on 4–12% Bis-Tris acrylamide gels using MES SDS running buffer (Thermo Fisher Scientific). Human constitutive 20S samples were run on a 10% Bis-Tris acrylamide gel using MOPS SDS running buffer (Thermo Fisher Scientific). Gels were imaged at the Cy5 channel on a Gel Doc XR+ Documentation System (Bio-Rad) or an Amersham Typhoon Trio imager (GE Healthcare Life Sciences).

[13] = test system: bortezomib-resistant 3D7 B1 line (clone B1a); test: 72 h viability assay, bortezomib-resistant B1 line / clone B1a; format: cell-based, Plasmodium falciparum; conditions: for cross-resistance of the bortezomib-resistant parasite line (B1): growth inhibition, versus 3D7; for bortezomib-resistant 3D7 B1 line LD50 (72 h): ring stage, mean ± SEM, n=3; for Bortezomib-resistant3D7 B1 LD50 (72-h): supplement CSV
Description: as §2
Prior to selection, an aliquot of the parental line was stocked as a reference for subsequent whole genome sequencing analysis. Several independent clones of P. falciparum 3D7 parasite line were cultured in Petri dishes exposed to increasing drug pressure for ∼30 weeks. Parasites were cloned by limiting dilution. For parasite extraction and genomic DNA isolation, cultures were scaled up to at least 4–5% parasitaemia, lysed in saponin, and genomic DNA was isolated using ISOLATE II Genomic DNA kit (Bioline). DNA libraries for each gDNA sample were prepared for sequencing using the Nextera XT kit as described previously.[50] Libraries were clustered and run on an Illumina HiSeq 2500 using the RapidRun mode, sequencing 100 base pairs in depth on either end. Paired-end reads were either aligned to the P. falciparum 3D7 reference genome (PlasmoDB version 13.0).

[14] = biological target: T1, human proteasome β2 (Homo sapiens, UniProt P49720+Q99436); test: Validation of resynthesized Ac-P3-P2-P1-AMC substrates, human proteasome; format: biochemical; conditions: 10 μM
T1 construct: purchased Boston Biochem
Description: as §1

Sequence of Plasmodium falciparum 20S proteasome β2 (Q8I261 entry or part of it): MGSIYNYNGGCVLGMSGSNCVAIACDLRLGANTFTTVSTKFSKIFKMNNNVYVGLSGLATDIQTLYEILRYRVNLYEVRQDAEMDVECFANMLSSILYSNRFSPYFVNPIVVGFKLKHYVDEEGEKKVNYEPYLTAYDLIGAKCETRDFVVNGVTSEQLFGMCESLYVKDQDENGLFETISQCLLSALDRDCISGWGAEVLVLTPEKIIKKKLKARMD
Sequence of Plasmodium falciparum 20S proteasome β2 (Q06323 whole entry, further chain): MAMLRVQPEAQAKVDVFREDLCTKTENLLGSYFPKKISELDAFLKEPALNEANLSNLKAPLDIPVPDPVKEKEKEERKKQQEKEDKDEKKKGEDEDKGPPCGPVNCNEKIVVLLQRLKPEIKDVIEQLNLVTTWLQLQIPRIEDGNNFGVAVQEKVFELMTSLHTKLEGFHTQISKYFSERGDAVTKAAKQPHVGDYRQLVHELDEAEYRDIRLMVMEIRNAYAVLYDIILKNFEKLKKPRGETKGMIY
Sequence of Plasmodium falciparum 20S proteasome β2 (Q8I6T3 entry or part of it): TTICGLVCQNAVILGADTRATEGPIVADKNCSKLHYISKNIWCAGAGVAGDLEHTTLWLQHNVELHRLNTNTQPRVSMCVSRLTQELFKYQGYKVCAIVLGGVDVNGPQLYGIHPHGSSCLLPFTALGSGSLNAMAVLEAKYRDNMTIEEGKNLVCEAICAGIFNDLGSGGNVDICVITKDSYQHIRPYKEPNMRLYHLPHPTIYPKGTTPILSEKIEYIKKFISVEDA
Sequence of Plasmodium falciparum 20S proteasome β2 (Q9UL46 2-239, further chain): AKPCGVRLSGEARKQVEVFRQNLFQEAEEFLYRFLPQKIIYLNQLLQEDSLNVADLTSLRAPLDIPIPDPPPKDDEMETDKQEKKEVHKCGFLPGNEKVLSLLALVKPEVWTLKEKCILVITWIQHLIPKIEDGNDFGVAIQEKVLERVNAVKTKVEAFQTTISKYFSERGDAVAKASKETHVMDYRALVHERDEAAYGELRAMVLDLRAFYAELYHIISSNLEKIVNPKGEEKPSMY
Sequence of Plasmodium falciparum 20S proteasome β5 (Q9UL46 2-239): as the sequence (Q9UL46 2-239, further chain) above
Sequence of Plasmodium falciparum 20S proteasome β5 (A0A5K1K7U1 entry or part of it): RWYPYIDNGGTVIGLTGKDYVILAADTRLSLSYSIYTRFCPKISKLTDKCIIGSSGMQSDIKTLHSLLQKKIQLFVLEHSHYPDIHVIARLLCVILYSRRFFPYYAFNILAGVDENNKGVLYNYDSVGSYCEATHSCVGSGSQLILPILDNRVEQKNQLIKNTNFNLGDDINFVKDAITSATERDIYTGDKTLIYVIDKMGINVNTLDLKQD
Sequence of Plasmodium falciparum 20S proteasome β5 (Q06323 whole entry, further chain): as the sequence (Q06323 whole entry, further chain) above
Sequence of Plasmodium falciparum 20S proteasome β5 (Q8IJT1 entry or part of it): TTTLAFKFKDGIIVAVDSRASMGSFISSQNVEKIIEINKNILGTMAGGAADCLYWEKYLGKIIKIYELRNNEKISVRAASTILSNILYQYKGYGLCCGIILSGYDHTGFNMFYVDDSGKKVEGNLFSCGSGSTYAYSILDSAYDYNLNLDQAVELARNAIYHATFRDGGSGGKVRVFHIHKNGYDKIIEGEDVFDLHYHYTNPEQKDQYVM
Sequence of Plasmodium falciparum 20S proteasome β1 (Q9UL46 2-239): as the sequence (Q9UL46 2-239, further chain) above
Sequence of Plasmodium falciparum 20S proteasome β1 (Q8I0U7 entry or part of it): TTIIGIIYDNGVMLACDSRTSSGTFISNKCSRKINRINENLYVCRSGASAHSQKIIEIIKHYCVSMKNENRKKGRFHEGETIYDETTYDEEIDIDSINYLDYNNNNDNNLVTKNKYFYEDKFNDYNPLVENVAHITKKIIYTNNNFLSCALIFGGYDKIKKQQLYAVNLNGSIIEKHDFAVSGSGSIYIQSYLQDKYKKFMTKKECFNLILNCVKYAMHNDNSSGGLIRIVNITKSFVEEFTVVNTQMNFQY
Sequence of Plasmodium falciparum 20S proteasome β1 (Q8I6T3 entry or part of it): as the sequence (Q8I6T3 entry or part of it) above
Sequence of Plasmodium falciparum 20S proteasome β1 (Q06323 whole entry, further chain): as the sequence (Q06323 whole entry, further chain) above

Compound | activity as substrate for Pf20S [1] | Pf3D7 LD50 (72 h) [5] | Pf3D7 LD50 (72-h) [5] | subunit specificity by BMV037 probe labeling, human constitutive proteasome and immunoproteasome [6] | subunit specificity by BMV037 probe labeling, wild-type 3D7 [7] | Cam3.II^Rev LD50 (3 h) [8] | Cam3.IIRev LD50 (3-h) [8] | HCT116 LD50 (72 h) [9] | HCT116 LD50 (72-h) [9] | HepG2 LD50 (72 h) [10] | HepG2 LD50( 72-h) [10] | Cam3.II^R539T LD50 (3 h) [11] | Cam3.IIR539T LD50 (3-h) [11] | cross-resistance of the bortezomib-resistant parasite line (B1) [13] | bortezomib-resistant 3D7 B1 line LD50 (72 h) [13] | Bortezomib-resistant3D7 B1 LD50 (72-h) [13] | other results
Ac-Trp-Trp-Lys-{AMC} | both active and selective for Pf20S |  |  |  |  |  |  |  |  |  |  |  |  |  |  |  | 
CC(C)C[C@H](NC(=O)[C@H](CCc1ccccc1)NC(=O)CN1CCOCC1)C(=O)N[C@@H](Cc1ccccc1)C(=O)N[C@@H](CC(C)C)C(=O)[C@@]1(C)CO1 [carfilzomib] |  |  |  |  |  |  |  |  |  |  |  |  |  |  |  |  | inhibitory effect against Pf20S proteasome β1 activity [2]: only weak inhibitory effect; Pf20S β2 activity with carfilzomib [3]: completely abrogated; Pf20S β5 activity with carfilzomib [4]: completely abrogated
Cc1ccc(S(=O)(=O)N[C@@H](CC(=O)NCC(C)(C)C)C(=O)N[C@@H](Cc2ccccc2)C(=O)N[C@@H](CC(C)C)B(O)O)cc1 [MPI-3] |  | 0.065 ± 0.004 µM | 0.065 ± 0.004 µM | preferential inhibition of the β1 and β5 subunits | inhibited both β2 and β5 activities | 0.21 ± 0.03 µM | 0.21 ± 0.03 µM | 0.027 ± 0.002 µM | 0.027 ± 0.002 µM | 0.26 ± 0.06 µM | 0.26 ± 0.06 µM | 0.19 ± 0.03 µM | 0.19 ± 0.03 µM | retained sensitivity | 0.054 ± 0.007 µM | 0.054 ± 0.007 µM | IC50 ([5]; Plasmodium falciparum, 3D7, dose–response profiles, n = 3, read-out: 50% viability inhibitory concentration against 3D7 parasites): ~0.06 µM; BMV037 labeling of the human β1 and β5 subunits after treatment ([6]; 1 μM, especially constitutive proteasome): still evident; BMV037 competition profile in bortezomib-resistant parasites [12]: very similar in the bortezomib-resistant and wild-type parasites
CC(=O)N1CCC[C@H]1C(=O)N[C@@H](C)C(=O)N[C@@H](CC(C)C)B(O)O [MPI-2] |  | 0.16 ± 0.02 µM | 0.16 ± 0.02 µM | preferentially inhibited β1c and β5i | preferentially inhibited binding of the probe to the β5 subunit | 1.8 ± 0.2 µM | 1.8 ± 0.2 µM | 1.3 ± 0.3 µM | 1.3 ± 0.3 µM | 2.4 ± 0.73 µM | 2.4 ± 0.73 µM | 1.5 ± 0.2 µM | 1.5 ± 0.2 µM | very strong cross-resistance | >2 µM | > 2 µM | BMV037 labeling of the β5 active site in bortezomib-resistant parasites [12]: no longer able to prevent BMV037 labeling of the β5 active site
Ac-Arg-Gln-Arg-{AMC} | inactive |  |  |  |  |  |  |  |  |  |  |  |  |  |  |  | activity as substrate for human proteasome β2 [14]: good human proteasome β2 substrate
Ac-Lys-Trp-His-{AMC} | both active and selective for Pf20S |  |  |  |  |  |  |  |  |  |  |  |  |  |  |  | 
